According to patent US11339446B2, “Biomarker for measurement of response and prognosis of triple-negative breast cancer to anticancer agent” (SEOUL NATIONAL UNIVERSITY R&DB FOUNDATION, priority 2017, dated 2022):
pIC50: −log10 of the molar value.

Key:
Format in all cases: cell-based
[1] = system: MDA-MB-231 cell line; assay: CellTiter-Glo cell viability assay after docetaxel, MDA-MB-231
Description: (§1) MDA-MB-231, DU4475, MDA-MB-436, and MDA-MB-157 cell lines were purchased from the ATCC. MDA-MB-468, HCC1937, HS578T, and HCC38 cell lines were obtained from the Korea Cell Bank. MDA-MB-157 cell line was cultured in a Leibovitz's L15 culture medium supplemented with 10% fetal bovine serum. The MDA-MB-436 cell line was cultured in a Leibovitz's L15 culture medium supplemented with 10% fetal bovine serum and 0.026 units/ml units insulin. The MDA-MB-231 cell line, the MDA-MB-468 cell line, and the HS578T cell line were each cultured in a DMEM culture medium supplemented with 10% fetal bovine serum in 5% CO2. The remaining cell lines were each cultured in a RPMI-1640 culture medium supplemented with 10% fetal bovine serum in 5% CO2.
(§2) In the present disclosure, docetaxel was used to find genes related to resistance to taxane-based neoadjuvant chemotherapy (NAC). Docetaxel was purchased at Sigma-Aldrich, and then, dissolved according to the instructions of the manufacturer. The cell lines were collected using trypsin treatment, counted with a hemocytometer, and plated for 14 hours at a density of 3,000 cells/well in a 96-well plate. Afterwards, the solvent was replaced with docetaxel at different concentrations (e.g., 0 nM, 0.01 nM, 0.1 nM, 1 nM, 10 nM, and 100 nM), 48 hours after exposure to docetaxel, cell viability experiments were performed using the CellTiter-Glo Luminescent Cell Viability Assay according to the protocol of the manufacture. The CellTiter-Glo Luminescent Cell Viability Assay is a method of determining the number of cells present in a culture medium depending on the amount of ATP in a culture medium. In summary, the same amount of 100 μl of CellTiter-Glo assay reagents were added to each well, incubated for 10 minutes at room temperature, and then, measured according to the luminometry. The experiment was repeated twice, and the 50% inhibitory concentration of each cell line was measured by non-linear regression analysis.

[2] = system: DU4475 cell line; assay: CellTiter-Glo cell viability assay after docetaxel, DU4475
Description: as §1, §2

[3] = system: MDA-MB-468 cell line; assay: CellTiter-Glo cell viability assay after docetaxel, MDA-MB-468
Description: as §1, §2

[4] = system: HS578T cell line; assay: CellTiter-Glo cell viability assay after docetaxel, HS578T
Description: as §1, §2

[5] = system: HCC1937 cell line; assay: CellTiter-Glo cell viability assay after docetaxel, HCC1937
Description: as §1, §2

[6] = system: HCC38 cell line; assay: CellTiter-Glo cell viability assay after docetaxel, HCC38
Description: as §1, §2

[7] = system: MDA-MB-157 cell line; assay: CellTiter-Glo cell viability assay after docetaxel, MDA-MB-157; conditions: MDA-MB-15T
Description: as §1, §2

[8] = system: MDA-MB-436 cell line; assay: CellTiter-Glo cell viability assay after docetaxel, MDA-MB-436
Description: as §1, §2

## CC(=O)O[C@@]12CO[C@@H]1C[C@H](O)[C@@]1(C)C(=O)[C@H](O)C3=C(C)[C@@H](OC(=O)[C@H](O)[C@@H](NC(=O)OC(C)(C)C)c4ccccc4)C[C@@](O)([C@@H](OC(=O)c4ccccc4)[C@H]21)C3(C)C [Docetaxel, docetaxel]
[1]; Homo sapiens, MDA-MB-231, 48 hours exposure
  pIC50: 7.54
[1]; MDA-MB-231, 50 nM
  Survival fraction: 0.47
[1]; MDA-MB-231, 100 nM
  Survival fraction: 0.35
[2]; DU4475, 50 nM
  Survival fraction: 0.37
[2]; DU4475, 100 nM
  Survival fraction: 0.27
[2]; Homo sapiens, DU-4475, DU4475, 48 hours exposure
  pIC50: 7.94
[3]; Homo sapiens, MDA-MB-468, 48 hours exposure
  pIC50: 8.74
[3]; MDA-MB-468, 50 nM
  Survival fraction: 0.27
[3]; MDA-MB-468, 100 nM
  Survival fraction: 0.26
[4]; 50 nM
  Survival fraction: 0.32
[4]; 100 nM
  Survival fraction: 0.29
[4]; Homo sapiens, Hs-578T, 48 hours exposure
  pIC50: 7.96
[5]; HCC1937, 50 nM
  Survival fraction: 0.76
[5]; HCC1937, 100 nM
  Survival fraction: 0.70
[5]; Homo sapiens, HCC1937, 48 hours exposure
  pIC50: < 7.00
[6]; HCC38, 50 nM
  Survival fraction: 0.57
[6]; HCC38, 100 nM
  Survival fraction: 0.53
[6]; Homo sapiens, HCC38, 48 hours exposure
  pIC50: < 7.00
[7]; Homo sapiens, MDA-MB-157, 48 hours exposure
  pIC50: < 7.00
[7]; 50 nM
  Survival fraction: 0.65
[7]; 100 nM
  Survival fraction: 0.65
[8]; Homo sapiens, MDA-MB-436, 48 hours exposure
  pIC50: < 7.00
[8]; MDA-MB-436, 50 nM
  Survival fraction: 0.81
[8]; MDA-MB-436, 100 nM
  Survival fraction: 0.75
